Reference: ChEMBL document CHEMBL1909046, “DrugMatrix in vitro pharmacology data”

Target: T1, Neuropeptide Y receptor type 1 (Homo sapiens, UniProt P25929); note: in other assays of this panel Not Active means under 50% inhibition at 10 µM
T1 sequence (P25929 whole entry): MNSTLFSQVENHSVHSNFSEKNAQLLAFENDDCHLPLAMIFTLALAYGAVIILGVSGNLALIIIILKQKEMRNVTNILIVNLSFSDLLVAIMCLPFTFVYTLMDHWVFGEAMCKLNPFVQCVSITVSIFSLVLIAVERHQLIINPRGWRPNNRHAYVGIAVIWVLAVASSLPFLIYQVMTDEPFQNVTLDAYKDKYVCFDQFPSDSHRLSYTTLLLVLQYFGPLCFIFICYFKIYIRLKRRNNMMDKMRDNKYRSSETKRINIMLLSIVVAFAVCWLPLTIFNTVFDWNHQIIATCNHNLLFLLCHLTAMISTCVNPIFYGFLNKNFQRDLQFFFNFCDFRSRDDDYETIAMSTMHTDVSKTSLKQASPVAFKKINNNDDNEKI
Type: cell membranes, Membrane
Settings: sk-n-mc

Molecule	IC50	Ki
CC(C)(CO)C(O)C(=O)NCCCO (stereo unspecified) [PANTHENOL]	Not Active	
COc1ccc(Cc2nccc3cc(OC)c(OC)cc23)cc1OC [PAPAVERINE]	Not Active	
OCCN1CCN(CCCN2c3ccccc3Sc3ccc(Cl)cc32)CC1 [PERPHENAZINE]	Not Active	
CCCCC1C(=O)N(c2ccccc2)N(c2ccccc2)C1=O [PHENYLBUTAZONE]	Not Active	
Cc1cccc(Nc2cc(Cl)nc(SCC(=O)O)n2)c1C [PIRINIXIC ACID]	Not Active	
CC[C@H](C)C(=O)O[C@H]1C[C@H](O)C=C2C=C[C@H](C)[C@H](CC[C@@H](O)C[C@@H](O)CC(=O)O)[C@H]21 [PRAVASTATIN]	Not Active	
CC(C)(Sc1cc(C(C)(C)C)c(O)c(C(C)(C)C)c1)Sc1cc(C(C)(C)C)c(O)c(C(C)(C)C)c1 [PROBUCOL]	Not Active	
COBALT(II) ACETYLACETONATE	Not Active	Not Active
INSULIN HUMAN	Not Active	Not Active

Target: T2, Alpha-2A adrenergic receptor (Homo sapiens, UniProt P08913); note: in other assays of this panel Not Active means under 50% inhibition at 10 µM
T2 sequence (P08913 whole entry): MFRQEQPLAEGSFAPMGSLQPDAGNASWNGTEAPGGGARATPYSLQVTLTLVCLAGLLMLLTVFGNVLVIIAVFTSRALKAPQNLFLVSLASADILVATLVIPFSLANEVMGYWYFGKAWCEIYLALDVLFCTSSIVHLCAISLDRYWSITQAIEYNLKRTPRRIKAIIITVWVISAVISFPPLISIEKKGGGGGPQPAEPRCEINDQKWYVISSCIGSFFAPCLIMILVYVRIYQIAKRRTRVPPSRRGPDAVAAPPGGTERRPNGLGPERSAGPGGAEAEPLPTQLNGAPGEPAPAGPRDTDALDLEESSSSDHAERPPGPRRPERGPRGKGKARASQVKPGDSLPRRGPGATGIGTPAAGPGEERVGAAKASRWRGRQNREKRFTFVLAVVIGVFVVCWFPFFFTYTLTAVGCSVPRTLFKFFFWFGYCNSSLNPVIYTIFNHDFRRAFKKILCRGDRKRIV
Type: cell membranes, Sf9, Membrane
Settings: sf9

Molecule	IC50	Ki
CC(C)(CO)C(O)C(=O)NCCCO (stereo unspecified) [PANTHENOL]	Not Active	
COc1ccc(Cc2nccc3cc(OC)c(OC)cc23)cc1OC [PAPAVERINE]	Not Active	
OCCN1CCN(CCCN2c3ccccc3Sc3ccc(Cl)cc32)CC1 [PERPHENAZINE]	Not Active	
CCCCC1C(=O)N(c2ccccc2)N(c2ccccc2)C1=O [PHENYLBUTAZONE]	Not Active	
Cc1cccc(Nc2cc(Cl)nc(SCC(=O)O)n2)c1C [PIRINIXIC ACID]	Not Active	
CC[C@H](C)C(=O)O[C@H]1C[C@H](O)C=C2C=C[C@H](C)[C@H](CC[C@@H](O)C[C@@H](O)CC(=O)O)[C@H]21 [PRAVASTATIN]	Not Active	
CC(C)(Sc1cc(C(C)(C)C)c(O)c(C(C)(C)C)c1)Sc1cc(C(C)(C)C)c(O)c(C(C)(C)C)c1 [PROBUCOL]	Not Active	
COBALT(II) ACETYLACETONATE	Not Active	Not Active
INSULIN HUMAN	Not Active	Not Active

Test system: not listed separately
Test: DRUGMATRIX: GABAA, Chloride Channel, TBOB radioligand binding (ligand: [3H] TBOB)
Type: cell membranes, Rattus norvegicus, Wistar, Cerebral cortex, Membrane
Settings: Not Active = under 50% inhibition at 10 µM

Molecule	IC50	Ki
CC(C)(CO)C(O)C(=O)NCCCO (stereo unspecified) [PANTHENOL]	Not Active	Not Active
COc1ccc(Cc2nccc3cc(OC)c(OC)cc23)cc1OC [PAPAVERINE]	Not Active	Not Active
OCCN1CCN(CCCN2c3ccccc3Sc3ccc(Cl)cc32)CC1 [PERPHENAZINE]	Not Active	Not Active
CCCCC1C(=O)N(c2ccccc2)N(c2ccccc2)C1=O [PHENYLBUTAZONE]	Not Active	Not Active
Cc1cccc(Nc2cc(Cl)nc(SCC(=O)O)n2)c1C [PIRINIXIC ACID]	Not Active	Not Active
CC[C@H](C)C(=O)O[C@H]1C[C@H](O)C=C2C=C[C@H](C)[C@H](CC[C@@H](O)C[C@@H](O)CC(=O)O)[C@H]21 [PRAVASTATIN]	Not Active	Not Active
CC(C)(Sc1cc(C(C)(C)C)c(O)c(C(C)(C)C)c1)Sc1cc(C(C)(C)C)c(O)c(C(C)(C)C)c1 [PROBUCOL]	Not Active	Not Active
COBALT(II) ACETYLACETONATE	Not Active	Not Active
INSULIN HUMAN	Not Active	Not Active

Target: 5-hydroxytryptamine receptor 6 (Homo sapiens, UniProt P50406); note: in other assays of this panel Not Active means under 50% inhibition at 10 µM
Sequence (P50406 whole entry): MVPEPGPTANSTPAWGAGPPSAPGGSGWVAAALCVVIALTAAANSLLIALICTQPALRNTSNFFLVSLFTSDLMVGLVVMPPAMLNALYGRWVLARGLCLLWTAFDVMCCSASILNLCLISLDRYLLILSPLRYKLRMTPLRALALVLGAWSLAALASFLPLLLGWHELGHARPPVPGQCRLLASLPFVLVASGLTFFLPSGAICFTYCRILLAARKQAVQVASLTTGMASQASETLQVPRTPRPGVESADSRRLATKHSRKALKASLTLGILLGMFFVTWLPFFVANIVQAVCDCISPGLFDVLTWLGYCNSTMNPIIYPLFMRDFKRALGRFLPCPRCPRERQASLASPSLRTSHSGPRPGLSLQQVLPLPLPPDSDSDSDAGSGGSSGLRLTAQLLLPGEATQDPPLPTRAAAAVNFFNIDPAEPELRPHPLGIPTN
Type: cell membranes, HeLa, Membrane
Settings: hela

Molecule	IC50	Ki
CC(C)(CO)C(O)C(=O)NCCCO (stereo unspecified) [PANTHENOL]	Not Active	
COc1ccc(Cc2nccc3cc(OC)c(OC)cc23)cc1OC [PAPAVERINE]	Not Active	
OCCN1CCN(CCCN2c3ccccc3Sc3ccc(Cl)cc32)CC1 [PERPHENAZINE]	Not Active	
CCCCC1C(=O)N(c2ccccc2)N(c2ccccc2)C1=O [PHENYLBUTAZONE]	Not Active	
Cc1cccc(Nc2cc(Cl)nc(SCC(=O)O)n2)c1C [PIRINIXIC ACID]	Not Active	
CC[C@H](C)C(=O)O[C@H]1C[C@H](O)C=C2C=C[C@H](C)[C@H](CC[C@@H](O)C[C@@H](O)CC(=O)O)[C@H]21 [PRAVASTATIN]	Not Active	
CC(C)(Sc1cc(C(C)(C)C)c(O)c(C(C)(C)C)c1)Sc1cc(C(C)(C)C)c(O)c(C(C)(C)C)c1 [PROBUCOL]	Not Active	
COBALT(II) ACETYLACETONATE	Not Active	Not Active
INSULIN HUMAN	Not Active	Not Active

Target: T3, Adenosine receptor A3 (Homo sapiens, UniProt P0DMS8);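 note: radioligand binding assay with AB-MECA serving as the labeled ligand; in other assays of this panel Not Active means under 50% inhibition at 10 µM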
T3 sequence (P0DMS8 whole entry): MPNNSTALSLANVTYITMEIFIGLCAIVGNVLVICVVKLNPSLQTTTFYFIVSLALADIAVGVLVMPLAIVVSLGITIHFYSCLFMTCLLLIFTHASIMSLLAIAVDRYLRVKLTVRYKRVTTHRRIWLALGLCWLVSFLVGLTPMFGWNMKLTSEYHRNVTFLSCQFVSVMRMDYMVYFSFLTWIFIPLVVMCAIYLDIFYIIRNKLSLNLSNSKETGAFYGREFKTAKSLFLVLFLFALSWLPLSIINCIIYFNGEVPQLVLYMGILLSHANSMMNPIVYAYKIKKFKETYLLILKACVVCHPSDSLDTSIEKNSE
Type: cell membranes, CHO-K1, Membrane
Settings: cho-k1

Molecule	IC50	Ki
CC(C)(CO)C(O)C(=O)NCCCO (stereo unspecified) [PANTHENOL]	Not Active	
COc1ccc(Cc2nccc3cc(OC)c(OC)cc23)cc1OC [PAPAVERINE]	Not Active	
OCCN1CCN(CCCN2c3ccccc3Sc3ccc(Cl)cc32)CC1 [PERPHENAZINE]	Not Active	
CCCCC1C(=O)N(c2ccccc2)N(c2ccccc2)C1=O [PHENYLBUTAZONE]	Not Active	
Cc1cccc(Nc2cc(Cl)nc(SCC(=O)O)n2)c1C [PIRINIXIC ACID]	Not Active	
CC[C@H](C)C(=O)O[C@H]1C[C@H](O)C=C2C=C[C@H](C)[C@H](CC[C@@H](O)C[C@@H](O)CC(=O)O)[C@H]21 [PRAVASTATIN]	Not Active	
CC(C)(Sc1cc(C(C)(C)C)c(O)c(C(C)(C)C)c1)Sc1cc(C(C)(C)C)c(O)c(C(C)(C)C)c1 [PROBUCOL]	Not Active	
COBALT(II) ACETYLACETONATE	Not Active	Not Active
INSULIN HUMAN	Not Active	Not Active

Test system: not listed separately
Test: DRUGMATRIX: Sodium/nucleoside co-transporter radioligand binding (ligand: nitrobenzylthioinosine)
Type: cell membranes, Cavia porcellus, Dunkin-Hartley, Cerebral cortex, Membrane
Settings: Not Active = under 50% inhibition at 10 µM

Molecule	IC50	Ki
CC(C)(CO)C(O)C(=O)NCCCO (stereo unspecified) [PANTHENOL]	Not Active	Not Active
COc1ccc(Cc2nccc3cc(OC)c(OC)cc23)cc1OC [PAPAVERINE]	Not Active	Not Active
OCCN1CCN(CCCN2c3ccccc3Sc3ccc(Cl)cc32)CC1 [PERPHENAZINE]	Not Active	Not Active
CCCCC1C(=O)N(c2ccccc2)N(c2ccccc2)C1=O [PHENYLBUTAZONE]	Not Active	Not Active
Cc1cccc(Nc2cc(Cl)nc(SCC(=O)O)n2)c1C [PIRINIXIC ACID]	Not Active	Not Active
CC[C@H](C)C(=O)O[C@H]1C[C@H](O)C=C2C=C[C@H](C)[C@H](CC[C@@H](O)C[C@@H](O)CC(=O)O)[C@H]21 [PRAVASTATIN]	Not Active	Not Active
CC(C)(Sc1cc(C(C)(C)C)c(O)c(C(C)(C)C)c1)Sc1cc(C(C)(C)C)c(O)c(C(C)(C)C)c1 [PROBUCOL]	Not Active	Not Active
COBALT(II) ACETYLACETONATE	Not Active	Not Active
INSULIN HUMAN	Not Active	Not Active

Target: Melanocortin receptor 5 (Homo sapiens, UniProt P33032); note: in other assays of this panel Not Active means under 50% inhibition at 10 µM
Sequence (P33032 whole entry): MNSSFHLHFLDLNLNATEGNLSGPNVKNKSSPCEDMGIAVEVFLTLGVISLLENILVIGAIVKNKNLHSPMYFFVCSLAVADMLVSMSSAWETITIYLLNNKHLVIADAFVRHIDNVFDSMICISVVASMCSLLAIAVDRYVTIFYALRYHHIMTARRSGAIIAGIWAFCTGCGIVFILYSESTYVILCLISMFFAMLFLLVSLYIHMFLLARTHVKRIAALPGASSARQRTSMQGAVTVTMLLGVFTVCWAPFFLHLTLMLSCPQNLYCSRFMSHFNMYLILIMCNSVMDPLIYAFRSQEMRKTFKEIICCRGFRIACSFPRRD
Type: cell membranes, HEK293, Membrane
Settings: hek293

Molecule	IC50	Ki
CC(C)(CO)C(O)C(=O)NCCCO (stereo unspecified) [PANTHENOL]	Not Active	
COc1ccc(Cc2nccc3cc(OC)c(OC)cc23)cc1OC [PAPAVERINE]	Not Active	
OCCN1CCN(CCCN2c3ccccc3Sc3ccc(Cl)cc32)CC1 [PERPHENAZINE]	Not Active	
CCCCC1C(=O)N(c2ccccc2)N(c2ccccc2)C1=O [PHENYLBUTAZONE]	Not Active	
Cc1cccc(Nc2cc(Cl)nc(SCC(=O)O)n2)c1C [PIRINIXIC ACID]	Not Active	
CC[C@H](C)C(=O)O[C@H]1C[C@H](O)C=C2C=C[C@H](C)[C@H](CC[C@@H](O)C[C@@H](O)CC(=O)O)[C@H]21 [PRAVASTATIN]	Not Active	
CC(C)(Sc1cc(C(C)(C)C)c(O)c(C(C)(C)C)c1)Sc1cc(C(C)(C)C)c(O)c(C(C)(C)C)c1 [PROBUCOL]	Not Active	
COBALT(II) ACETYLACETONATE	Not Active	Not Active
INSULIN HUMAN	Not Active	Not Active
